Several values for one entry are separate records, joined by “and”; a condition that tells them apart may be missing. Identical values can stand only once.
Assays:
Cyp2b10 [1] = assay: Cyp2b10 protein expression of treated mice by SDS-PAGE and Western blotting; settings: for Cyp2b10 protein in pooled liver microsomes (Western blot): PB 80 mg/kg ip daily for 4 days
Experimental: (§1) Dosing solutions were prepared on the day of administration by adding corn oil to the requisite quantity of test substance and stirring to obtain a solution or fine suspension. The concentration of PCN was 10 mg/ml and Rif 2.5 mg/ml of supplied chemical, without any correction for purity. Records of preparation were retained.
Control animals were administered vehicle (corn oil) daily by intraperitoneal injection. The volume of vehicle and solutions of inducing agents administered was 10 ml/kg bodyweight. This route of administration was chosen for consistency with previously published work. […]
(§2) Quantification of Cyp3a11, Cyp2b10 and PXR protein in liver microsomes of all mice samples was carried out by SDS-PAGE and Western blotting. To detect murine and human PXR protein, an antibody (RF8) was employed. For the identification of Cyp3a and Cyp2b, […] were used, (CH32 and CH4, respectively).

Cyp2b10 [2] = assay: pentoxyresorufin-O-deethylation (PROD) and BROD activity assay in liver microsomes of treated mice; settings: for BROD and PROD activities (Cyp2b10 / P450 induction): WT and huPXR/huCAR mice
[3] = wild type mice; rifampicin 10 mg/kg per day for 3 days before midazolam
liver [4] = assay: H&E histopathology of liver and small intestine; assay type: in vivo, mouse
From the text: Two samples of the liver (one from the lobe, one from the median lobe) and one sample of the small intestine were taken and preserved in 4% neutral buffered formaldehyde (NBF). The preserved liver samples of all mice of all groups were trimmed, processed and embedded in paraffin. The paraffin-embedded samples were sent to Progenix, Inverkeithing, UK where they were sectioned at a nominal thickness of about 5 áem and then stained with haematoxylin and eosin (H&E). One section of each organ sample was examined by Dr. Ortwin Vogel, Consultant Pathologist, Kiel, Germany. Subsequent to his histopatholoical analysis of all H&E stained mouse livers and small intestines, Dr. Vogel reported the following finding;

liver [5] = assay: TUNEL labelling assay (hepatic in situ cell death); assay type: in vivo, mouse; settings: WT, huPXR/huCAR and PXRKO/CARKO mice; PB 80 mg/kg ip daily for 4 days
From the text: However, no such consistency has been observed in mice. An indirect TUNEL labelling assay was used to analyse hepatic in situ death (FIG. 128/Table 4). The present study has shown a marker variation in apoptotic indices in mouse liver. Thus, small (e.g. 50%) compound-induced decreases, upon a low background, were not readily demonstrable.

[6] = Liver/body weight ratios (hepatomegaly); assay type: in vivo, mouse; settings: PB 80 mg/kg ip daily for 4 days; for Body weight (g) - Day 5 / Liver weight / Liver/Body weight Ratio: Mean ± SD; for hepatomegaly: WT and huPXR/huCAR mice
From the text: Post operation all animals had no abnormalities detected.

Cyp3a11 and Cyp2b10 = assay: Comparative induction study in PXR/CAR humanised and knockout panel (Cyp3a11, Cyp2b10 protein, BQ and PROD activity); settings: mice in which CAR had been knocked out; 40 mg/kg
From the text: The effects of phenobarbital on Cyp3a11 and Cyp2b10 induction were compared in wild type, huPXR, koPXR, huCAR, koCAR, huPXR/huCAR, koPXR/koCAR huPXR/koCAR and koPXR/huCAR mice (see FIG. 87).

Cyp1a1/1a2 and Cyp1b1 = assay: MROD and EROD activity in liver microsomes of treated mice; settings: PB 80 mg/kg ip daily for 4 days
From the text: EROD activity is indicative of Cyp1a1/1a2 and Cyp1b1 in the mouse, whereas MROD is a substrate for Cyp1a2. However, other isoforms may be contributing to the measured activities. The results from the two enzyme assays are in reasonably good agreement with each other (FIG. 130a-b) As the Cyp1a2 gene is constitutively expressed, this may explain the basal levels of activity observed in both activity assays.

[7] = wild-type, koPXR or koCAR mice; 40 mg/kg
Experimental: For the same animals, plasma levels of alanine aminotransferase (ALT), alkaline phosphatase (ALP) and aspartate aminotransferase (AST) were also measured (see FIG. 40). […] Both compounds were administered at 40 mg/kg.
Plasma levels of alanine aminotransferase (ALT), alkaline phosphatase (ALP) and aspartate aminotransferase (AST) were also measured (see FIG. 46).

Cyp3a = assay: 7-benzyloxyquinoline (BQ) activity assay in liver microsomes of treated mice; settings: PB 80 mg/kg ip daily for 4 days
Experimental: PXR activity was determined by measuring the metabolism of a number of cytochrome P450 substrates which are metabolised to different extents by different cytochrome P450 enzymes. The following assays were performed: • 7-benzyloxyquinoline (BQ) activity was determined in liver microsomes. • Testosterone hydroxylase activity was determined in liver microsomes (LMS HPLC-006). • The specific activities of these reactions was expressed per mg protein as determined using the Lowry assay (LMS Spec-0001).

Cyp3a11 [8] = assay: Cyp3a11 protein expression in liver microsomes of treated mice by SDS-PAGE and Western blotting; settings: mouse, in vivo, 40 mg/kg
Experimental: as §1
The volume of vehicle and solutions of inducing agents administered was 10 ml/kg bodyweight. This route of administration was chosen for consistency with previously published work. […]
as §2

liver cells = assay: BrdU incorporation in liver (hepatic cell proliferation, S-phase labelling index); assay type: in vivo, mouse; settings: for % BrDu Positive Cells, % mean (of own control) / % BrDu Positive Cells, Mean / % BrDu Positive Cells (individual mouse): liver; for cell proliferation (BrdU positive cells): huPXR/huCAR or PXRKO/CARKO mice
Cyp3a11 [9] = assay: Midazolam metabolism in koCyp3a11 mice; settings: male koCyp3a11 mice compared to male wild type mice
From the text: The also inventors studied the pharmacokinetics of midazolam (MDZ; metabolisation to form 1-hydroxymidazolam) in male koCyp3a11 mice, in comparison to male wild type mice.

[10] = PXRKO/CARKO mice, PB 80 mg/kg ip daily for 4 days
[11] = PXRKO/CARKO mice, PB 80 mg/kg ip daily for 4 days, listed as PB
[12] = PB 80 mg/kg ip daily for 4 days
[13] = PB 80 mg/kg ip daily for 4 days, listed as PB
[14] = WT mice, PB 80 mg/kg ip daily for 4 days
[15] = huPXR/huCAR mice, PB 80 mg/kg ip daily for 4 days

CO[C@H]1/C=C/O[C@@]2(C)Oc3c(C)c(O)c4c(O)c(c(/C=N/N5CCN(C)CC5)c(O)c4c3C2=O)NC(=O)/C(C)=C\C=C\[C@H](C)[C@H](O)[C@@H](C)[C@@H](O)[C@@H](C)[C@H](OC(C)=O)[C@@H]1C [rifampicin]
induction of Cyp2b10 expression (Cyp2b10 [1]; mouse, in vivo): did not induce
induction of Cyp2b10 expression and PROD activity (Cyp2b10 [1]; mouse, in vivo): only in the huPXR.1 mouse, but not in the wild type or in the huPXR mouse
induction of Cyp2b10 protein (Western blot) (Cyp2b10 [1]; mouse, in vivo, ip): not markedly induced
induction of Cyp2b10 activity (Cyp2b10 [2]; wild-type or huPXR mice, rifampicin): did not induce
effect of rifampicin pre-treatment on midazolam pharmacokinetics [3]: no significant effect was observed

CCC1(c2ccccc2)C(=O)NC(=O)NC1=O [phenobarbital, Phenobarbital]
hepatocellular hypertrophy (H&E, microscopic) (liver [4]; [10]): no unequivocal evidence of a hepatocellular hypertrophy
pathological evidence in liver (pathologist's conclusion) (liver [4]; PXRKO/CARKO strain, PB 80 mg/kg/4days/IP): Evidence of hepatocellular hyperplasia occurred
pathological evidence in liver (pathologist's conclusion) (liver [4]; WT and huPXR/huCAR strain, PB 80 mg/kg/4days/IP): pathological evidence of a hepatocellular hypertrophy/hyperplasia
mitotic figures indicating hepatocellular proliferation (H&E) (liver [4]; WT, huPXR/huCAR and PXRKO/CARKO mice, PB 80 mg/kg ip daily for 4 days): noted mainly in PB-treated WT mice
microscopic findings in the small intestine (liver [4]; all mouse lines, PB 80 mg/kg/4days/IP): No microscopic findings were recorded in the small intestine
hepatocellular hypertrophy (H&E, microscopic) (liver [4]; huPXR/huCAR and WT mice, PB 80 mg/kg ip daily for 4 days): slight to moderate centrilobular hepatocellular hyperthrophy
hepatic apoptotic indices (TUNEL), PB-treated vs control (liver [5]): no statistical significance found
Body weight - Day 5 (% mean own control ± % SD) ([6]; PXRKO/CARKO mice): (98 ± 8) %
Liver weight (% mean own control ± % SD) ([6]; PXRKO/CARKO mice): (98 ± 16) %
Liver/Body weight Ratio (% mean own control ± % SD) ([6]; PXRKO/CARKO mice): (100 ± 9) %
Body weight (g) - Day 5 ([6]; PXRKO/CARKO mice): 26.6 ± 2.2 g
Liver weight ([6]; PXRKO/CARKO mice): 1.42 ± 0.23 g
Liver/Body weight Ratio ([6]; PXRKO/CARKO mice): 5.3 ± 0.4
hepatomegaly [6]: led to both hepatomegaly and P450 induction
hepatomegaly ([6]; listed as PB): observed
Body weight - Day 5 (% mean own control ± % SD) ([6]; WT mice): (84 ± 5) %
Liver weight (% mean own control ± % SD) ([6]; WT mice): (101 ± 6) %
Body weight (g) - Day 5 ([6]; WT mice): 23.2 ± 1.3 g
Liver weight ([6]; WT mice): 1.44 ± 0.09 g
Liver/Body weight Ratio ([6]; WT mice): 6.2 ± 0.2
Body weight - Day 5 (% mean own control ± % SD) ([6]; huPXR/huCAR mice): (99 ± 6) %
Liver weight (% mean own control ± % SD) ([6]; huPXR/huCAR mice): (121 ± 11) %
Body weight (g) - Day 5 ([6]; huPXR/huCAR mice): 25.4 ± 1.5 g
Liver weight ([6]; huPXR/huCAR mice): 1.69 ± 0.16 g
Liver/Body weight Ratio ([6]; huPXR/huCAR mice): 6.7 ± 0.6
induction of Cyp3a11 and Cyp2b10 protein expression or activity in the BQ and PROD assays (Cyp3a11 and Cyp2b10): Little or no induction
Cyp2b10 protein in pooled liver microsomes (Western blot) (Cyp2b10 [1]; PXRKO/CARKO mice): not in the PXRKO/CARKO animals
Cyp2b10 protein in pooled liver microsomes (Western blot) (Cyp2b10 [1]; WT and huPXR/huCAR mice): induced
Cyp2b10 expression in liver (Western blot) (Cyp2b10 [1]; koCAR mice, 40 mg/kg): significantly reduced
Cyp2b10 expression (Western blot and PROD activity, liver) (Cyp2b10 [1]; wild-type and huCAR mice, 40 mg/kg): induced Cyp2b10 expression both in the wild-type and in huCAR mice
MROD and EROD enzyme activities (Cyp1a1/1a2 and Cyp1b1; PXRKO/CARKO line): no increase
MROD and EROD enzyme activities (Cyp1a1/1a2 and Cyp1b1; WT and huPXR/huCAR mice): increased
PROD or BROD activities (Cyp2b10 / P450 induction) (Cyp2b10 [2]; [11]): not altered
BROD and PROD activities (Cyp2b10 / P450 induction) (Cyp2b10 [2]; [12]): led to both hepatomegaly and P450 induction
BROD and PROD activities (Cyp2b10 / P450 induction) (Cyp2b10 [2]; [13]): marker Cyp2b10 induction was observed, at similar levels
hepatotoxicity (liver/body weight ratio, plasma ALT, ALP, AST) [7]: No hepatotoxicity was detected
Cyp3a11 induction (BQ activity) (Cyp3a; PXRKO/CARKO mice): absence of Cyp3a11 induction
increase in BQ activity (Cyp3a; WT mice): marginal increase
increase in BQ activity (Cyp3a; huPXR/huCAR mice): 5 fold
Cyp3a11 expression in liver (Western blot) (Cyp3a11 [8]): significantly reduced
% BrDu Positive Cells, % mean (of own control) (liver cells; [10]): 144%
% BrDu Positive Cells, Mean (liver cells; [10]): 2.83%
% BrDu Positive Cells (individual mouse) (liver cells; [11]): 2.16% and 1.98% and 1.82% and 2.30% and 3.77% and 5.10% and 3.71% and 1.88% and 3.06% and 2.51%
increase of hepatocellular labelling index (S-phase) (liver cells; [14]): approximately 5 fold
% BrDu Positive Cells, % mean (of own control) (liver cells; [14]): 531%
% BrDu Positive Cells, Mean (liver cells; [14]): 9.30%
% BrDu Positive Cells (individual mouse) (liver cells; WT mice, PB 80 mg/kg ip daily for 4 days, listed as PB): 9.45% and 5.54% and 16.69% and 6.32% and 9.50% and 8.09% and 7.64% and 13.60%
% BrDu Positive Cells, % mean (of own control) (liver cells; [15]): 104%
% BrDu Positive Cells, Mean (liver cells; [15]): 2.00%
% BrDu Positive Cells (individual mouse) (liver cells; huPXR/huCAR mice, PB 80 mg/kg ip daily for 4 days, listed as PB): 0.37% and 0.-18% and 1.19% and 1.86% and 3.GO and 1.98% and 3.18% and 3.24% and 2.13%
cell proliferation (BrdU positive cells) (liver cells; [12]): No increase in BrdU positive cells was observed
cell proliferation (BrdU positive cells) (liver cells; [13]): appeared to have no effect on cell proliferation
hepatocellular proliferation (% BrdU-positive cells) (liver cells; wild-type mice, phenobarbital vs unexposed control): hepatocellular proliferation only in wild-type mice

Cc1ncc2n1-c1ccc(Cl)cc1C(c1ccccc1F)=NC2 [midazolam]
1-hydroxymidazolam formation (Cyp3a11 [9]): significantly reduced

Source: patent US8624079B2, “Knockin mouse with a disruption in a PXR gene expressing human PXR” (ITI Scotland Limited, priority 2007, dated 2014)
